According to patent US9822131B2, “Certain chemical entities, compositions and methods” (Intellikine LLC, priority 2008, dated 2017):

Experiments:
[1] = molecular target: T1, PI3K δ (Homo sapiens, UniProt O00329); assay: PI3K δ in vitro kinase inhibition assay; format: biochemical
T1 construct: purchased Upstate
Method: (§1) IC50 values are measured using either a standard TLC assay for lipid kinase activity (described below) or a high-throughput membrane capture assay. Kinase reactions are performed by preparing a reaction mixture containing kinase, inhibitor (2% DMSO final concentration), buffer (25 mM HEPES, pH 7.4, 10 mM MgCl2), and freshly sonicated phosphatidylinositol (100 μg/ml). Reactions are initiated by the addition of ATP containing 10 μCi of γ-32P-ATP to a final concentration 10 or 100 μM and allowed to proceed for 5 minutes at room temperature. For TLC analysis, reactions are then terminated by the addition of 105 μl 1N HCl followed by 160 μl CHCl3:MeOH (1:1). The biphasic mixture is vortexed, briefly centrifuged, and the organic phase is transferred to a new tube using a gel loading pipette tip precoated with CHCl3. This extract is spotted on TLC plates and developed for 3-4 hours in a 65:35 solution of n-propanol:1M acetic acid. The TLC plates are then dried, exposed to a phosphorimager screen (Storm, Amersham), and quantitated.
(§2) Briefly, the assay is a time resolved FRET assay that indirectly measures PIP3 product formed by the activity of a PI3-K. The kinase reaction is performed in a microtiter plate (e.g., a 384 well microtiter plate). The total reaction volume is approximately 20 ul per well. In the first step, each well receives 2 ul of test compound in 20% dimethylsulphoxide resulting in a 2% DMSO final concentration. Next, approximately 14.5 ul of a kinase/PIP2 mixture (diluted in 1× reaction buffer) is added per well for a final concentration of 0.25-0.3 ug/ml kinase and 10 uM PIP2. […] To start the reaction, 3.5 ul of ATP (diluted in 1× reaction buffer) is added per well for a final concentration of 10 uM ATP. The plate is sealed and incubated for 1 hour at room temperature. The reaction is stopped by adding 5 ul of Stop Solution per well and then 5 μl of Detection Mix is added per well. The plate is sealed, incubated for 1 hour at room temperature, and then read on an appropriate plate reader. Data is analyzed and IC50s are generated using GraphPad Prism 5.

[2] = molecular target: T2, PI3K γ (Homo sapiens, UniProt P48736); assay: PI3K γ in vitro kinase inhibition assay; format: biochemical
T2 construct: purchased Sigma
Method: as §1, §2

[3] = molecular target: T3, PI3K α (Homo sapiens, UniProt P42336); assay: PI3K α in vitro kinase inhibition assay; format: biochemical
T3 construct: purchased Upstate
T3 sequence (P42336 whole entry): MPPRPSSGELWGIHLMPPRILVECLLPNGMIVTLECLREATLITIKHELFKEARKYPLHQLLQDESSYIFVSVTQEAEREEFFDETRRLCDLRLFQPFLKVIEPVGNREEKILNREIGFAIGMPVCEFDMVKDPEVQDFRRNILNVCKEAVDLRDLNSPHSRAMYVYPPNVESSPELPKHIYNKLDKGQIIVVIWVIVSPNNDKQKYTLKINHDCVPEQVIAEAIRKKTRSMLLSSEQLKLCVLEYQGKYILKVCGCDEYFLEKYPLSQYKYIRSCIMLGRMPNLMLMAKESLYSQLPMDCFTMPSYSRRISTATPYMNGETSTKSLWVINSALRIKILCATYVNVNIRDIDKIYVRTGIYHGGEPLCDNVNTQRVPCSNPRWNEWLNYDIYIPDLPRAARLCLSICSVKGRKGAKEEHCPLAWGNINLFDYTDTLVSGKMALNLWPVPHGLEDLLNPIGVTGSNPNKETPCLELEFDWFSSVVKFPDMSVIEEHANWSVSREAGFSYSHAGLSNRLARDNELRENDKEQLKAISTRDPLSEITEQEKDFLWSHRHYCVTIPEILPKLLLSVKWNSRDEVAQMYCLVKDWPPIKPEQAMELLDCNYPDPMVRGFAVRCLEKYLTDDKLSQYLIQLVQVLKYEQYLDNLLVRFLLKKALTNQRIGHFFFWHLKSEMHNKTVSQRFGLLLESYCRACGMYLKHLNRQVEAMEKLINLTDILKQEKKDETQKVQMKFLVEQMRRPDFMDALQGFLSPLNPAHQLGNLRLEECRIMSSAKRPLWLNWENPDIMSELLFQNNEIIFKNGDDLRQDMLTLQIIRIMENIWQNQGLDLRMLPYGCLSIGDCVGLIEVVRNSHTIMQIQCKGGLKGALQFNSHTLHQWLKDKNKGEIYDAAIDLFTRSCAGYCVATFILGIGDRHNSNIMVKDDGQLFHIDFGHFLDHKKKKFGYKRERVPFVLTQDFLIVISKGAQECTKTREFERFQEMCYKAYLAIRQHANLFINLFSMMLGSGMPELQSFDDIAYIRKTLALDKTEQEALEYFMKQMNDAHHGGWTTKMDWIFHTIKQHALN
T3 sequence (P27986 whole entry partner): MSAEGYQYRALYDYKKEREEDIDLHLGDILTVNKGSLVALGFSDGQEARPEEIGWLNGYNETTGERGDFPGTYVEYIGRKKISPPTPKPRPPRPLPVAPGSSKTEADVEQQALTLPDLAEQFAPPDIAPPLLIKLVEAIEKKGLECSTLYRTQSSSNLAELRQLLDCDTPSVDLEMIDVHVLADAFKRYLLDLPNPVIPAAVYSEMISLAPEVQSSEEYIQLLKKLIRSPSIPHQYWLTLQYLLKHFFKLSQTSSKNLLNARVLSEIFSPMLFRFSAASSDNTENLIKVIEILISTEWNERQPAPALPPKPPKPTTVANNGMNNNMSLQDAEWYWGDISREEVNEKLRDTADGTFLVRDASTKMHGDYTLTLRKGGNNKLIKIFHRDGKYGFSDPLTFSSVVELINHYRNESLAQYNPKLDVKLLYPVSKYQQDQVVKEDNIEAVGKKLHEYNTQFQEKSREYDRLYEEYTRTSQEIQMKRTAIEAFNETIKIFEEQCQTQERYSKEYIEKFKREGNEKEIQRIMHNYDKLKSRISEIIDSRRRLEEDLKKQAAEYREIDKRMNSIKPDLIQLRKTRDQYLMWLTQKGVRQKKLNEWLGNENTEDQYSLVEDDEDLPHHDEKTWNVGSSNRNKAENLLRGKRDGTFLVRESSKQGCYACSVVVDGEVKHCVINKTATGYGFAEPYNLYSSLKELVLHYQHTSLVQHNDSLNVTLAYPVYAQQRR
Method: as §1, §2

[4] = molecular target: T4, PI3K β (Homo sapiens, UniProt P42338); assay: PI3K β in vitro kinase inhibition assay; format: biochemical
T4 construct: purchased Upstate
T4 sequence (P42338 whole entry): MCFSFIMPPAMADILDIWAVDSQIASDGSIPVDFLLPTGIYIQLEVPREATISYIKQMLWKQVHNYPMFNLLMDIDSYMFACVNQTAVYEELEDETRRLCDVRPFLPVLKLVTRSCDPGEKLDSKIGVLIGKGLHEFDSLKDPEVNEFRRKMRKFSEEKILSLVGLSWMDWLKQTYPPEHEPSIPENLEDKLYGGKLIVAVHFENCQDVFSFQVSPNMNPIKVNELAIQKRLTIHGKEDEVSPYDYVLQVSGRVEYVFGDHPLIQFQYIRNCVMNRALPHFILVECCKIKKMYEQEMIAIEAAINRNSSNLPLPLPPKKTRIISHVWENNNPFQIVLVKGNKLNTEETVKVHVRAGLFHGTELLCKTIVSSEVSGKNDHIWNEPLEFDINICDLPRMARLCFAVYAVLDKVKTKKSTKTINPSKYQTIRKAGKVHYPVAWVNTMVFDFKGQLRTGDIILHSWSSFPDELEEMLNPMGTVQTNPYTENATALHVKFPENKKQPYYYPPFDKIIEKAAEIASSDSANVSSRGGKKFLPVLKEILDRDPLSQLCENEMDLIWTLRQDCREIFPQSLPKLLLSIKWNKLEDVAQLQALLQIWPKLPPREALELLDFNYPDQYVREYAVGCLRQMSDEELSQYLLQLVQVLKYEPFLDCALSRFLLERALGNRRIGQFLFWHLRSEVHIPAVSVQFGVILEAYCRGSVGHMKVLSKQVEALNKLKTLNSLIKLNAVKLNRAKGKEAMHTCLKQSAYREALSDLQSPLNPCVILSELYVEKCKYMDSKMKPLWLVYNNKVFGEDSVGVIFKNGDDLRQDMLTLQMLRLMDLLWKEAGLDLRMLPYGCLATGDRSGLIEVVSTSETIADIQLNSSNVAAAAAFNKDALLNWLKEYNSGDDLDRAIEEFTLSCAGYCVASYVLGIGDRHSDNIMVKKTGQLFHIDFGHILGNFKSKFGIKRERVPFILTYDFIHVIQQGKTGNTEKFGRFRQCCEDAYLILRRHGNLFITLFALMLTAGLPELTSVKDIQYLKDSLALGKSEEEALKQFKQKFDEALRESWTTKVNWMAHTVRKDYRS
T4 sequence (P27986 whole entry partner): as the sequence (P27986 whole entry partner) above
Method: as §1, §2

[5] = test system: Balb/c splenic B cells; assay: B cell activation and proliferation assay (Alamar Blue); format: cell-based; settings: Mus musculus, read-out: B cell proliferation EC50
Method: The assay is performed in a 96 well microtiter plate using Alamar Blue reduction. Balb/c splenic B cells are purified over a Ficoll-Paque™ PLUS gradient followed by magnetic cell separation using a MACS B cell Isolation Kit (Miletenyi). Cells are plated in 90 ul at 50,000 cells/well in B Cell Media (RPMI+10% FBS+Penn/Strep+50 uM bME+5 mM HEPES). A compound disclosed herein is diluted in B Cell Media and added in a 10 ul volume. Plates are incubated for 30 min at 37 C and 5% CO2 (0.2% DMSO final concentration). A 50 ul B cell stimulation cocktail is then added containing either 10 ug/ml LPS or 5 ug/ml F(ab′)2 Donkey anti-mouse IgM plus 2 ng/ml recombinant mouse IL4 in B Cell Media. […] A volume of 15 uL of Alamar Blue reagent is added to each well and plates are incubated for 5 hours at 37 C and 5% CO2. Alamar Blue fluoresce is read at 560Ex/590Em, and IC50 or EC50 values are calculated using GraphPad Prism 5.

T2 sequence (P48736 whole entry): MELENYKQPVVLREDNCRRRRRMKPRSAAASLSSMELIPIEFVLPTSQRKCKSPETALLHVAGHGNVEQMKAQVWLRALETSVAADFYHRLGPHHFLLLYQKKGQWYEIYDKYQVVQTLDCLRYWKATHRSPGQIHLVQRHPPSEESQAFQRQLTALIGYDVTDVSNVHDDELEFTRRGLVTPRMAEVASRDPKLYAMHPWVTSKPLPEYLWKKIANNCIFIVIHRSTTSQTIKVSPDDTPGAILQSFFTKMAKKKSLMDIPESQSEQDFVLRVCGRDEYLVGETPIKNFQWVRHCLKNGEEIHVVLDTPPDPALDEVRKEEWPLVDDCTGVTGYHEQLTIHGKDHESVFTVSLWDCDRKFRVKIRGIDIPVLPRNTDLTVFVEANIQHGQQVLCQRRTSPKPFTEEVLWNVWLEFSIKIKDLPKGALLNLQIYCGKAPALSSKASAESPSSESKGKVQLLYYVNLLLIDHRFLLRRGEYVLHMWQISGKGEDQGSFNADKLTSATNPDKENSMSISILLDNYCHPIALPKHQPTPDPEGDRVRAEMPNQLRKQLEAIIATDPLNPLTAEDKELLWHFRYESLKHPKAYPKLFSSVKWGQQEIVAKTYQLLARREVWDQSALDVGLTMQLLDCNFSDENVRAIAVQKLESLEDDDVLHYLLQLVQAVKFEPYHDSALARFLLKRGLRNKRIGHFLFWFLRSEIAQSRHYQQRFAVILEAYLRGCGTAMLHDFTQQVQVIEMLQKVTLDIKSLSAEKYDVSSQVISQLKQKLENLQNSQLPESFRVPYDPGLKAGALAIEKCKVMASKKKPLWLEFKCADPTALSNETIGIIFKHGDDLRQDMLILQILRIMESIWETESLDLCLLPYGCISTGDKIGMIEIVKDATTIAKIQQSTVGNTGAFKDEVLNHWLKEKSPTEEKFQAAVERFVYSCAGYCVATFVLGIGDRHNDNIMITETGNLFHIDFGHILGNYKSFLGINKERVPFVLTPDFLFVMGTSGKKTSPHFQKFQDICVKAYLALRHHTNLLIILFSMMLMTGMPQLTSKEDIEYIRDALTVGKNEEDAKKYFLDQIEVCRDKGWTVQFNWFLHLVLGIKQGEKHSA
T1 sequence (O00329 whole entry): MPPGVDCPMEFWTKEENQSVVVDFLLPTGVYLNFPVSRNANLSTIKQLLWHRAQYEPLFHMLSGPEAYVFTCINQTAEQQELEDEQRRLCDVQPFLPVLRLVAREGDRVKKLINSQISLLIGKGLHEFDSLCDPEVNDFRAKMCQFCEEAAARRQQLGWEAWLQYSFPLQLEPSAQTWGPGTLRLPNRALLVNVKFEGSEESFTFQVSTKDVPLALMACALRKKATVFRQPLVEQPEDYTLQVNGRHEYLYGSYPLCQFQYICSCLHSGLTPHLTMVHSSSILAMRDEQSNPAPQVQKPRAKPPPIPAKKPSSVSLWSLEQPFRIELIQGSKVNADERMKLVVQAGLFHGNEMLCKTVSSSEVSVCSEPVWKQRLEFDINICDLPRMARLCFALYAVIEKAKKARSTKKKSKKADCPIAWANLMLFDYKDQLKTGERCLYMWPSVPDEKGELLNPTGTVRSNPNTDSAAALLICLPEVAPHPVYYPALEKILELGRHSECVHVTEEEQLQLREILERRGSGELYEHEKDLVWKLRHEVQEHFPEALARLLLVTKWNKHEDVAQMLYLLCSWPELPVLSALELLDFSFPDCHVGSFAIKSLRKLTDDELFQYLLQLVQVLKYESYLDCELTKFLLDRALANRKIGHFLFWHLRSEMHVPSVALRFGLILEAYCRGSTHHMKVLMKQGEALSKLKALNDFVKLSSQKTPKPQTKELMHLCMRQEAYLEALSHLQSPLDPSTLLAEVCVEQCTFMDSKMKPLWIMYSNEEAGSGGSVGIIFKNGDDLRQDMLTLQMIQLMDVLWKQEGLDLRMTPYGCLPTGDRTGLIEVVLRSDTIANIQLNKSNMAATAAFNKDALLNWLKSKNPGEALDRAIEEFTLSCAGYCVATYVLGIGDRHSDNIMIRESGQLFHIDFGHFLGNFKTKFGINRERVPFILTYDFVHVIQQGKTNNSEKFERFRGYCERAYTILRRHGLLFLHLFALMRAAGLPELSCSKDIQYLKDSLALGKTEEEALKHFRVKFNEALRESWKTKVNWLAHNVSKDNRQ
T1 sequence (P27986 whole entry partner): as the sequence (P27986 whole entry partner) above

| IC50 [1] | IC50 [2] | IC50 [3] | IC50 [4] | SMILES | EC50 [5] |
| --- | --- | --- | --- | --- | --- |
| < 10 µM | < 10 µM | > 10 µM | > 10 µM | Cc1csc2nc(Cn3nc(-c4ccc(O)cc4)c4c(N)ncnc43)n(-c3ccccc3F)c(=O)c12 [Compound 263] | < 10 µM |
| < 0.1 µM | < 1 µM | > 10 µM | > 10 µM | Cc1ccccc1-n1c(Cn2nc(-c3ccc(O)c(F)c3)c3c(N)ncnc32)cc2nccc(C)c2c1=O [Compound 226] | < 1 µM |
| < 0.1 µM | < 10 µM | > 10 µM | > 10 µM | Cc1ccccc1-n1c(Cn2nc(Cl)c3c(N)ncnc32)nc2nccc(C)c2c1=O [Compound 203] | < 1 µM |
| < 0.1 µM | > 10 µM | < 10 µM | < 1 µM | Cc1csc2nc(Cn3nc(-c4cc(O)cc(F)c4)c4c(N)ncnc43)n(-c3ccccc3Cl)c(=O)c12 [Compound 296] | < 0.1 µM |
| < 0.1 µM | < 1 µM | > 10 µM | > 10 µM | Cc1ccccc1-n1c(Cn2nc(Br)c3c(N)ncnc32)nc2scc(C)c2c1=O [Compound 250] | < 0.1 µM |
| < 0.1 µM | < 1 µM | > 10 µM | > 10 µM | Cc1csc2nc(Cn3nc(-c4ccc(F)c(O)c4)c4c(N)ncnc43)n(-c3ccccc3F)c(=O)c12 [Compound 259] | < 0.1 µM |
| < 0.1 µM | < 1 µM | > 10 µM | > 10 µM | Cc1csc2nc(Cn3nc(Cl)c4c(N)ncnc43)n(-c3ccccc3C(F)(F)F)c(=O)c12 [Compound 280] | < 0.1 µM |
| < 1 µM | > 10 µM | > 10 µM | > 10 µM | Cc1ccccc1-n1c(Cn2nc(Br)c3c(N)ncnc32)nc2snc(C)c2c1=O [Compound 239] |  |
| < 0.1 µM | < 0.1 µM | > 10 µM | < 1 µM | CCc1ccccc1-n1c(Cn2nc(-c3cc(O)cc(F)c3)c3c(N)ncnc32)nc2scc(C)c2c1=O [Compound 292] | < 0.1 µM |
| < 10 µM | > 10 µM | > 10 µM | > 10 µM | Cc1ccnc2nc(Cn3nc(C#CC4CC4)c4c(N)ncnc43)n(-c3ccccc3Cl)c(=O)c12 [Compound 208] | < 10 µM |
| < 0.1 µM | > 10 µM | > 10 µM | < 10 µM | Cc1cccnc1-n1c(Cn2nc(-c3cc(O)cc(F)c3)c3c(N)ncnc32)nc2scc(C)c2c1=O [Compound 297] | < 0.1 µM |
| < 1 µM | < 10 µM | > 10 µM | > 10 µM | Cc1ccccc1-n1c(Cn2nc(-c3cccc(O)c3)c3c(N)ncnc32)nc2snc(C)c2c1=O [Compound 241] |  |
| < 10 µM | > 10 µM | > 10 µM | > 10 µM | Cc1cc2c(=O)n(-c3ccccc3C)c(Cn3nc(-c4cccc(O)c4)c4c(N)ncnc43)nc2s1 [Compound 294] |  |
| < 1 µM | > 10 µM | > 10 µM | > 10 µM | Cc1ccccc1-n1c(Cn2nc(C#CC3CC3)c3c(N)ncnc32)nc2nccc(C)c2c1=O [Compound 202] | < 10 µM |
| < 0.1 µM | < 10 µM | > 10 µM | < 10 µM | Cc1csc2nc(Cn3nc(C#C[C@@H](C)O)c4c(N)ncnc43)n(-c3ncccc3C(F)(F)F)c(=O)c12 [Compound 282] | < 0.1 µM |
| < 0.1 µM | < 0.1 µM | > 10 µM | < 10 µM | Cc1csc2nc(Cn3nc(-c4cccc(O)c4)c4c(N)ncnc43)n(-c3ccccc3C(F)(F)F)c(=O)c12 [Compound 281] | < 0.1 µM |
| < 0.1 µM | < 0.1 µM | > 10 µM | < 10 µM | Cc1csc2nc(Cn3nc(I)c4c(N)ncnc43)n(-c3ccccc3C(C)C)c(=O)c12 [Compound 284] | < 0.1 µM |
| < 1 µM | < 10 µM | > 10 µM | > 10 µM | Cc1cccnc1-n1c(Cn2nc(Cl)c3c(N)ncnc32)nc2scc(C)c2c1=O [Compound 270] |  |
| < 0.1 µM | > 10 µM | > 10 µM | > 10 µM | Cc1ccccc1-n1c(Cn2nc(Br)c3c(N)ncnc32)nc2sc(C)c(C)c2c1=O [Compound 301] |  |
| < 10 µM | > 10 µM | > 10 µM | > 10 µM | Cc1nn(Cc2nc3nccc(C)c3c(=O)n2-c2ccccc2F)c2ncnc(N)c12 [Compound 210] | < 10 µM |

| IC50 [1] | IC50 [2] | IC50 [3] | IC50 [4] | SMILES | EC50 [5] |
| --- | --- | --- | --- | --- | --- |
| < 1 µM | < 10 µM | > 10 µM | > 10 µM | Cc1ccccc1-n1c(Cn2nc(I)c3c(N)ncnc32)nc2nccc(C)c2c1=O [Compound 199] | < 0.1 µM |
| < 0.1 µM | < 0.1 µM | > 10 µM | < 10 µM | CCc1ccccc1-n1c(Cn2nc(Br)c3c(N)ncnc32)nc2scc(C)c2c1=O [Compound 283] | < 0.1 µM |
| < 0.1 µM | < 1 µM | > 10 µM | > 10 µM | COc1ccccc1-n1c(Cn2nc(Br)c3c(N)ncnc32)nc2scc(C)c2c1=O [Compound 274] |  |
| < 1 µM | > 10 µM | > 10 µM | > 10 µM | Cc1ccccc1-n1c(Cn2nc(C#CC3CC3)c3c(N)ncnc32)cc2nccc(C)c2c1=O [Compound 225] | < 1 µM |
| < 0.1 µM | < 1 µM | > 10 µM | < 10 µM | Cc1csc2nc(Cn3nc(Br)c4c(N)ncnc43)n(-c3ccccc3Cl)c(=O)c12 [Compound 286] | < 0.1 µM |
| < 0.1 µM | < 0.1 µM | > 10 µM | > 10 µM | Cc1csc2nc(Cn3nc(C#C[C@@H](C)O)c4c(N)ncnc43)n(-c3ccccc3F)c(=O)c12 [Compound 261] | < 1 µM |
| < 0.1 µM | < 1 µM | > 10 µM | > 10 µM | Cc1ccccc1-n1c(Cn2nc(I)c3c(N)ncnc32)nc2scc(C)c2c1=O [Compound 242] | < 0.1 µM |
| < 1 µM | > 10 µM | > 10 µM | > 10 µM | Cc1ccccc1-n1c(Cn2nc(-c3cc(O)cc(F)c3)c3c(N)ncnc32)nc2nccc(C)c2c1=O [Compound 200] | < 10 µM |
| < 0.1 µM | > 10 µM | > 10 µM | > 10 µM | Cc1ccccc1-n1c(Cn2nc(Br)c3c(N)ncnc32)nc2nccc(C)c2c1=O [Compound 204] | < 1 µM |
| < 0.1 µM | < 0.1 µM | > 10 µM | < 10 µM | Cc1ccccc1-n1c(Cn2nc(-c3ccc(O)c(Cl)c3)c3c(N)ncnc32)nc2scc(C)c2c1=O [Compound 269] |  |
| < 1 µM | > 10 µM | > 10 µM | > 10 µM | Cc1ccccc1-n1c(Cn2nc(-c3cccc(O)c3)c3c(N)ncnc32)nc2sc(C)c(C)c2c1=O [Compound 299] |  |
| < 0.1 µM | > 10 µM | > 10 µM | > 10 µM | Cc1ccccc1N1C(=O)C2C(C=NN2C)N=C1Cn1nc(-c2cc(O)cc(F)c2)c2c(N)ncnc21 (stereo not shown) [Compound 221] | < 1 µM |
| < 10 µM | > 10 µM | > 10 µM | > 10 µM | Cc1ccccc1-n1c(Cn2nc(-c3cccc(O)c3)c3c(N)ncnc32)nc2c(C)nn(C)c2c1=O [Compound 217] | < 10 µM |
| < 0.1 µM | < 1 µM | > 10 µM | < 10 µM | COc1ccccc1-n1c(Cn2nc(-c3cccc(O)c3)c3c(N)ncnc32)nc2scc(C)c2c1=O [Compound 275] | < 0.1 µM |
| < 0.1 µM | < 1 µM | > 10 µM | > 10 µM | Cc1ccccc1-n1c(Cn2nc(Cl)c3c(N)ncnc32)nc2scc(C)c2c1=O [Compound 249] | < 0.1 µM |
| < 0.1 µM | < 0.1 µM | > 10 µM | < 10 µM | CCc1ccccc1-n1c(Cn2nc(-c3cccc(O)c3)c3c(N)ncnc32)nc2scc(C)c2c1=O [Compound 290] | < 0.1 µM |
| < 0.1 µM | < 1 µM | > 10 µM | > 10 µM | Cc1ccnc2cc(Cn3nc(-c4cc(O)cc(F)c4)c4c(N)ncnc43)n(-c3ccccc3F)c(=O)c12 [Compound 231] | < 0.1 µM |
| < 0.1 µM | < 0.1 µM | > 10 µM | > 10 µM | Cc1csc2nc(Cn3nc(-c4cc(O)cc(F)c4)c4c(N)ncnc43)n(-c3ccccc3F)c(=O)c12 [Compound 258] | < 0.1 µM |
| < 0.1 µM | < 0.1 µM | > 10 µM | > 10 µM | Cc1ccccc1-n1c(Cn2nc(C)c3c(N)ncnc32)nc2scc(C)c2c1=O [Compound 246] | < 1 µM |
